Key:
[1] = target: T1, recombinant human Cox-1 (r-hu Cox1) (Homo sapiens, UniProt P23219); assay: Recombinant human PGHS-1 enzyme assay (RHUCX1); format: biochemical
T1 construct: made in house; host or cells: baculovirus/Sf9 insect cells (microsomes)
Procedure: (§1) To compare the mean responses of the treatment groups, analysis of variance was applied. Percent inhibition values were determined by comparing the individual treatment mean values to the mean of the control group. Linear regression was used to estimate IC50's/ED50's in appropriate assays.
(§2) EIA reagents for prostaglandin determination were purchased from Perseptive Diagnostics, (Cambridge, Mass.). Prostaglandin E2 (PGE2) levels in lavage fluids were determined after the samples were dried under nitrogen and reconstituted with assay buffer. PGE2 levels in enzyme assays or cell culture media were measured against standards prepared in the same milieu. The immunoassays were conducted as recommended by the manufacturer. The EIA was conducted in 96 well microtiter plates (Nunc Roskilde, Denmark) and optical density was measured using a microplate reader (Vmax, Molecular Devices Corp., Menlo Park, Calif.).
(§3) Inhibition of prostaglandin biosynthesis in vitro was evaluated using recombinant human Cox-1 (r-hu Cox1) and Cox-2 (r-hu Cox-2) enzyme assays. […] The reaction was allowed to run for 2.5 minutes at room temperature prior to quenching with HCl and neutralization with NaOH. PGE2 production in the presence and absence of the drug was determined by EIA analysis. The EIA was conducted in 96 well microtiter plates (Nunc Roskilde, Denmark) and optical density was measured using a microplate reader (Vmax, Molecular Devices Corp., Menlo Park, Calif.). EIA reagents for prostaglandin determination were purchased from Perseptive Diagnostics (Cambridge, Mass.). PGE2 levels were measured against standards prepared in the same milieu. The immunoassays were conducted as recommended by the manufacturer.

[2] = target: T2, recombinant human Cox-2 (r-hu Cox-2) (Homo sapiens, UniProt P35354); assay: Recombinant human PGHS-2 enzyme assay (RHUCX2); format: biochemical; conditions: for IC50: read-out: RHUCX2 IC50 (parenthetical value)
T2 construct: made in house; host or cells: baculovirus/Sf9 insect cells (microsomes)
T2 sequence (P35354 18-604): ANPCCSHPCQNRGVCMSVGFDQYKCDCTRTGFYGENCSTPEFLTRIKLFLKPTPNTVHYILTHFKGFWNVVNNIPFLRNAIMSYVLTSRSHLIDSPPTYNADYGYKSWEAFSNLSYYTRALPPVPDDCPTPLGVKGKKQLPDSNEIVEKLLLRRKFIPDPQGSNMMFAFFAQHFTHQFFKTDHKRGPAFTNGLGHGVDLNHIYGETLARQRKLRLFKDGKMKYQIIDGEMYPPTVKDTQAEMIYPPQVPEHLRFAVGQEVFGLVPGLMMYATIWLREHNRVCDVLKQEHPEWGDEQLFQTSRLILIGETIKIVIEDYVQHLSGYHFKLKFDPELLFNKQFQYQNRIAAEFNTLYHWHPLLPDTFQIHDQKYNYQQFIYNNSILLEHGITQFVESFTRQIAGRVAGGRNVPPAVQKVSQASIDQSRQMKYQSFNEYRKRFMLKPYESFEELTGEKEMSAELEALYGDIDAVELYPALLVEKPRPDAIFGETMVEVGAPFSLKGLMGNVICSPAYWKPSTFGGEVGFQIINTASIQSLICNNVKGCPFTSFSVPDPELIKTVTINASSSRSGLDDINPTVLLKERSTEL
Procedure: as §1, §2, §3

[3] = 0.01 μM, read-out: RHUCX2 % Inh. at Dose
[4] = 0.1 μM, read-out: RHUCX2 % Inh. at Dose
[5] = 1 μM, read-out: RHUCX2 % Inh. at Dose
[6] = 100 μM, read-out: RHUCX1 % Inh. at Dose

T1 sequence (P23219 24-599): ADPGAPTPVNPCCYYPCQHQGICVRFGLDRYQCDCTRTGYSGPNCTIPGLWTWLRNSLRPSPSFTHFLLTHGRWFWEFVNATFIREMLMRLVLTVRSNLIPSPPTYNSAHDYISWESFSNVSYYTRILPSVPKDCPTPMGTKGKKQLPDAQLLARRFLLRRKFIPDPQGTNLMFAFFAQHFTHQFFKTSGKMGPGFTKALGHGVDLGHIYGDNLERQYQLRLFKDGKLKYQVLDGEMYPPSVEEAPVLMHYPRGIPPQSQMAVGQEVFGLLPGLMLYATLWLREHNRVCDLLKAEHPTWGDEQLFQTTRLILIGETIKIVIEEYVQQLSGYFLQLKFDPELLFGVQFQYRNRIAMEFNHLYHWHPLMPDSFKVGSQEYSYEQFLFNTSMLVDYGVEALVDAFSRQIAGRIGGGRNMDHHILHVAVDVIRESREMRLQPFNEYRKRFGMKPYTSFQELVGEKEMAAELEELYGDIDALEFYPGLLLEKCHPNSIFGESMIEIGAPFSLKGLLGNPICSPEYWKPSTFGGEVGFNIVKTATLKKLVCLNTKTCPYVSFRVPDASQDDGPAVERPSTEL

| Molecule | inhibition at 100 µM [1, 6] [%] | RHUCX1 % Inh. at Dose (μM) ([1]; 100 μM) | RHUCX2 % Inh. at Dose (μM) ([2]; 0.1 μM) | RHUCX2 % Inh. at Dose (μM) ([2]; 1 μM) | further results |
| --- | --- | --- | --- | --- | --- |
| CC(c1cccc(F)c1)n1ncc(-c2ccc(S(N)(=O)=O)cc2)c(-c2ccc(F)cc2)c1=O (stereo not drawn) [Example 144, 2-(α-Methyl-3-fluorobenzyl)-4-(4-fluorophenyl)-5-[4-(aminosulfonyl)phenyl]-3(2H)-pyridazinone] | – | – | – | – | IC50 ([1]; read-out: RHUCX1 IC50 (parenthetical value)): 58 nM; inhibition at 0.01 µM [2, 3]: 65%; inhibition at 0.1 µM [2, 4]: 78%; inhibition at 1 µM [2, 5]: 88%; melting point: 192 to 194 °C |
| NS(=O)(=O)c1ccc(-c2cnn(Cc3ccc(F)c(F)c3)c(=O)c2-c2ccc(F)cc2)cc1 [Example 127, 2-(3,4-Difluorobenzyl)-4-(4-fluorophenyl)-5-[4-(aminosulfonyl)phenyl]-3(2H)-pyridazinone] | – | – | – | – | inhibition at 1 µM ([1]; 1 μM, read-out: RHUCX1 % Inh. at Dose): 30%; inhibition at 10 µM ([1]; 10 μM, read-out: RHUCX1 % Inh. at Dose): 50%; inhibition at 0.1 µM [2, 4]: 51%; inhibition at 1 µM [2, 5]: 74%; melting point: 253 to 255 °C |
| CCCCC(CC)COc1c(-c2ccc(S(C)(=O)=O)cc2)cnn(-c2ccc(F)cc2)c1=O (stereo not drawn) [Example 178, 2-(4-Fluorophenyl)-4-(2-ethyl-1-hexyloxy)-5-[4-(methylsulfonyl)phenyl]-3(2H)-pyridazinone] | 6 | – | – | – | inhibition at 10 µM ([2]; 10 μM, read-out: RHUCX2 % Inh. at Dose): 34%; melting point: 120 to 122 °C |
| CC1CCC(n2ncc(-c3ccc(S(C)(=O)=O)cc3)c(-c3ccc(F)cc3)c2=O)C1 (stereo not drawn) [Example 133] | – | 23 @ 100% | – | – | IC50 [2]: 358 nM |
| CS(=O)(=O)c1ccc(-c2cnn(-c3ccc(F)c(F)c3)c(=O)c2-c2cccs2)cc1 [Example 237, 2-(3,4-Difluorophenyl)-4-(2-thienyl)-5-[4-(methylsulfonyl)phenyl]-3(2H)-pridazinone] | – | – | 89 @ 0.1% | – | RHUCX1 % Inh. at Dose (μM) ([1]; 1 μM): 44 @ 1%; RHUCX1 % Inh. at Dose (μM) ([1]; 10 μM): 54 @ 10% |
| CC(C)COc1c(-c2ccc(S(N)(=O)=O)c(F)c2)cnn(-c2cccc(Cl)c2)c1=O [Example 412] | 31 | – | – | – | IC50 [2]: 2 nM |
| 2-(3-Chlorophenyl)-4-(cyclopentylmethyl)-5-[4-(methylsulfonyl)phenyl]-3(2H)-pyridazinone [Example 364] | – | 0 @ 100% | 0 @ 0.1% | 86 @ 1% | – |
| CS(=O)(=O)c1ccc(-c2cnn(CC(F)(F)F)c(=O)c2OCCN2CCOCC2)cc1 [Example 273] | – | 16 @ 100% | – | 42 @ 1% | RHUCX2 % Inh. at Dose (μM) ([2]; 10 μM): 54 @ 10% |
| CS(=O)(=O)c1ccc(-c2cnn(CC(F)(F)F)c(=O)c2SC2CCCC2)cc1 [Example 283] | – | 0 @ 100% | 54 @ 0.1% | 71 @ 1% | RHUCX2 % Inh. at Dose (μM) ([2]; 10 μM): 90 @ 10% |
| 2-(2-Hexyl)-4-(4-fluorophenyl)-5-[4-(methylsulfonyl)phenyl]-3(2H)-pyridazinone [Example 118] | – | 31 @ 100% | 72 @ 0.1% | – | RHUCX2 % Inh. at Dose (μM) ([2]; 0.01 μM): 17 @ 0.01% |
| CC(C)CCOc1c(-c2ccc(S(N)(=O)=O)cc2)cnn(-c2ccc(F)cc2)c1=O [Example 398, 2-(4-Fluorophenyl)-4-(3-methylbutoxy)-5-[4-(aminosulfonyl)phenyl]-3(2H)-pyrdazinone] | 26 | – | – | – | IC50 [2]: 202 nM |

More lines, main results first:

| inhibition at 100 µM [1, 6] [%] | RHUCX1 % Inh. at Dose (μM) ([1]; 100 μM) | RHUCX2 % Inh. at Dose (μM) ([2]; 0.1 μM) | RHUCX2 % Inh. at Dose (μM) ([2]; 1 μM) | Molecule | further results |
| --- | --- | --- | --- | --- | --- |
| 14 | – | – | – | CS(=O)(=O)c1ccc(-c2cnn(C3Cc4ccccc4C3)c(=O)c2-c2ccc(F)cc2)cc1 [Example 128, 2-(2,3-Dihydro-1H-inden-2-yl)-4-(4-fluorophenl)-5-[4-(methylsulfonyl)phenyl]-3(2H)-pyridazinone] | IC50 [2]: 477 nM; melting point: 97 to 100 °C |
| 26 | – | – | – | NS(=O)(=O)c1ccc(-c2cnn(Cc3ccc(F)cc3F)c(=O)c2-c2ccc(F)cc2)cc1 [Example 124, 2-(2,4-Difluorobenzl)-4-(4-fluorolphenyl)-5-[4-(aminosulfonyl)phenyl]-3(2H)-pyridazinone] | IC50 [2]: 44 nM; melting point: 236 to 238 °C |
| 0 | – | – | – | CC(C)=CCOc1c(-c2ccc(S(C)(=O)=O)cc2)cnn(-c2cccc(Cl)c2)c1=O [Example 423, 2-(3-Chlorophenyl)-4-(3-methyl-2-butenoxy)-5-[4-(methylsulfonyl)phenyl]-3(2H)-pyridazinone] | inhibition at 0.01 µM [2, 3]: 36%; inhibition at 0.1 µM [2, 4]: 68%; inhibition at 1 µM [2, 5]: 87%; melting point: 113 to 115 °C |
| 0 | – | – | – | Cc1ccc(-c2c(-c3ccc(S(C)(=O)=O)cc3)cnn(-c3ccc(F)c(F)c3)c2=O)cc1 [Example 234] | IC50 [2]: 328 nM; melting point: 190 to 192 °C |
| – | 7 @ 100% | 68 @ 0.1% | 90 @ 1% | CS(=O)(=O)c1ccc(-c2cnn(-c3ccc(F)cc3)c(=O)c2C#Cc2ccccc2)cc1 [Example 231, 2-(4-Fluorophenyl)-4-(pheylethynyl)-5-[4-(methylsulfonl)phenyl]-3(2H)-pyridazinone] | – |
| – | 20 @ 100% | 83 @ 0.1% | 96 @ 1% | CS(=O)(=O)c1ccc(-c2cnn(Cc3ccccc3)c(=S)c2-c2ccc(F)cc2)cc1 [Example 32, 2-Benzyl-4-(4-fluorophenyl)-5-[4-(methylsulfonyl)phenyl]-3(2H)-pridazinethione] | – |
| – | – | 36 @ 0.1% | 86 @ 1% | CS(=O)(=O)c1ccc(-c2cnn(-c3csc4ccccc34)c(=O)c2-c2ccc(F)cc2)cc1 [Example 107] | RHUCX1 % Inh. at Dose (μM) ([1]; 1 μM): 50 @ 1%; RHUCX1 % Inh. at Dose (μM) ([1]; 10 μM): 88 @ 10% |
| – | 0 @ 100% | 55 @ 0.1% | 70 @ 1% | COc1ccc(CCOc2c(-c3ccc(S(C)(=O)=O)cc3)cnn(CC(F)(F)F)c2=O)cc1OC [Example 272] | – |
| – | 5 @ 100% | 50 @ 0.1% | 93 @ 1% | CS(=O)(=O)c1ccc(-c2cnn(-c3cccc(Br)c3)c(=O)c2Oc2ccc(F)cc2)cc1 [Example 110] | – |
| – | 0 @ 100% | 68 @ 0.1% | – | C=C(C)Cn1ncc(-c2ccc(S(C)(=O)=O)cc2)c(-c2ccc(F)cc2)c1=O [Example 23, 2-(Methyl-2-propenyl)-4-(4-fluorophenyl)-5-[4-(methylsulfonyl)phenyl]-3(2H)-pyridazinone] | RHUCX2 % Inh. at Dose (μM) ([2]; 0.01 μM): 27 @ 0.01% |
| – | 13 @ 100% | 17 @ 0.1% | 49 @ 1% | CS(=O)(=O)c1ccc(-c2cnn(CC(=O)c3ccc(F)cc3F)c(=O)c2-c2ccc(F)cc2)cc1 [Example 41, 2-(2,4-Difluorophenacyl)-4-(4-fluorophenyl)-5-[4-(methylsulfonyl)phenyl]-3(2H)-pyrdazinone] | – |
| 15 | – | – | – | NS(=O)(=O)c1ccc(-c2cnn(-c3cccc(Cl)c3)c(=O)c2CCc2ccccc2)cc1 [Example 393, 2-(3-Chlorophenyl)-4-(phenethyl)-5-[4-(aminosulfonyl)phenyl]-3(2H)-pyridazinone] | inhibition at 0.1 µM [2, 4]: 58%; inhibition at 1 µM [2, 5]: 85% |
| – | 0 @ 100% | 55 @ 0.1% | 79 @ 1% | CC(C)CCc1c(-c2ccc(S(C)(=O)=O)cc2)cnn(CC(F)(F)F)c1=O [Example 209] | RHUCX2 % Inh. at Dose (μM) ([2]; 0.01 μM): 40 @ 0.01% |

— patent US20020028938A1, “Prostaglandin endoperoxide H synthase biosynthesis inhibitors” (priority 1997, published 2002)
